Measurements: patent US5405760A, “Process for producing recombinant McrBC endonuclease and cleavage of methylated DNA” (New England Biolabs, Inc., priority 1992, dated 1995)

What was measured:
[1] = system: DNA from bacteriophages T4αgt βgt dam^h dam1 and T6αgt; test: McrBC cleavage of 5-hydroxymethylcytosine-containing phage DNA; type: biochemical, bacteriophages T4 and T6; conditions: hmC DNA first treated with EcoRI or SspI, then McrBC with GTP
Method: (§1) Accordingly, the DNA Escherichia coli W3110(ppvuIIM1.9), which is modified in the sequence CAGCTG at the N^4 position of the central cytosine to generate the sequence CAGm4CTG, was treated with. McrBC in the presence of GTP following embedding of the cultured cells in agarose and subsequent lysis in situ to release the DNA, by standard procedures for in situ digestion. DNA carrying this modification was cleaved into many fragments of sizes smaller than 50 kb. From this evidence it was concluded that McrBC recognizes sequences containing N^4 C. In addition, DNA from bacteriophages T4αgt βgt dam^h dam1 and T6αgt, containing 5-hydroxymethylcytosine in place of cytosine and devoid of N^6 -methyladenine, was first treated with EcoRI or SspI and then treated with McrBC in the presence of GTP. Both of these DNAs were cleaved to produce many fragments smaller than 700 bp. From this evidence it was concluded that McrBC recognizes sequences containing hm5C as well m5C and N^4 -methylcytosine.

[2] = Properties of the McrBC cleavage reaction (pH, ratio of components); type: biochemical
Source text: (a) pH optimum: Activity is detectable when the pH of the reaction is lowered to about 5.8.
Higher or lower ratios reduce cleavage activity.

[3] = system: DNA Escherichia coli W3110(ppvuIIM1.9); test: McrBC digestion of agarose-embedded M.PvuII-modified cellular DNA; type: biochemical
Method: as §1

methylated DNA = test: McrBC cleavage of plasmid and phage DNA modified by methylases; type: biochemical
Source text: The recognition sequence of the endonuclease of the present invention may be determined by mapping the locations of McrBC cleavage in various DNAs and comparing the DNA sequences of these regions for homology.
McrBC was also found to cleave M.AluI-methylated doublestranded pUC19 linearized at the AflIII site to generate fragments of 2.25 kb, 1.9 kb, 1.75 kb, 1.275 kb, 1.15 kb, 1.05 kb 0.94 kb, 0.25 kb and 0.27 kb, consistent with cleavage near nucleotides 250, 2300, 1350 and 325. McrBC also cleaves the following: M.HaeIII-methylated (GGmCC) pUC19 linearized at the AflIII site to generate fragments of 2.25 kb, 1.8 kb, 1.25 kb, 1.05 kb, 0.94 kb, 0.5 kb, and 0.45 kb, consistent with cleavage near nucleotide 1600, 2500, 350 and 550; M.HhaI-methylated (GmCGC) pBR322 near nucleotides 434-494 and near nucleotides 594-548; M.HhaI-methylated pUC19 linearized at the AflIII site to generate bands of 2.25 kb, 1.9 kb, 1.15 kb, and 0.94 kb, consistent with cleavage near nucleotides 0 or 60, 2350, 1500 and 620; M.MspI-modified (mCCGG) pUC19 linearized at the AflIII site to generate bands of 1.6 kb, 1.5 kb, 1.0 kb and 0.9 kb, consistent with cleavage near nucleotides 1500 and 1600. In addition, McrBC degrades the following: M.SssI modified (mCG) pBR322 and M.SssI modified pUC19 DNA; agarose-embedded cellular DNA of Escherichia coli carrying ppvuIIM1.9, which is M.PvuII modified ([…]).
pBR322 was modified by M.AluI by standard methods, cleaved with ClaI, and resuspended at 0.1 μg/μl. This substrate was recleaved with one of four restriction endonucleases that cleave once in pBR322 (AflIII, NdeI, ScaI, or SspI). These reactions (0.4 μg DNA in each, cleaved in a volume of 20 μl with the appropriate buffer supplied by New England Biolabs) were phenol extracted, precipitated by addition of ethanol in the presence of salt, and resuspended in dH2 O. Half of each reaction (0.2 μg) was digested with McrBC (1 μl each of McrBL and McrC; McrBL was similar to McrBL fraction iii of EXAMPLE III; McrC was similar to McrC fraction ii of EXAMPLE III). Reactions were loaded onto an agarose gel, with size standards (pBR322 digested with BstNI; NEB #301-1) and the sizes of the various fragments determined from a log-linear plot of cm migration (from a Polaroid photograph) versus known size of size standards. Sizes of fragments larger than the largest size standard were estimated by extrapolation and are indicated by "~". Sizes were lane 1, size standard: 1857, 1060, 929, 383, 121 bp; lane 2, AflIII+McrBC: >4 kb (faint, partial digest product), ~2.5, ~2.2, 1.7, 0.7 kb; lane 3, AflIII: ~2.6, ~2.1 (expected sizes 2.449, 1.912); lane 4, NdeI+McrBC: ~ 2.2, ~2.1, 1.8, 0.4 kb; lane 5, NdeI: ~2.5, ~2.2 kb (expected sizes 2.272, 2.089); lane 6, McrBC: ~2.2, 1.7, 0.93, 0.66, 0.48 kb; lane 7, ScaI: ~3.7, 0.54 (expected sizes 3.822, 0.541); lane 8, ScaI+McrBC: ~2.1, ~1.9, 1.1, 0.66, 0.60, 0.54 kb; lane 9, SspI: ~3.7, 0.28 kb (expected sizes 4.146, 0.215); lane 10, SspI+McrBC: ~2.2, 1.35, 0.66, 0.56 kb.
DNA used was pUC19 linearized at the AflIII site, obtained by standard procedures, and then methylated (0.8 μg) in a reaction containing 8 μl 10 X buffer (for M.AluI, M.HhaI, and M.HpaII this was 10XM.FnuDII buffer: 500 mM Tris[Cl] pH 7.5, 100 mM EDTA, 50 mM β-mercaptoethanol;for M.HaeIII, 500 mM Tris [Cl] pH 8.5; 500 mM NaCl, 10 mM dithiothreitol; for M.MspI, 500 mM Tris, pH 7.5, 500 mM NaCl, 50 mM β-mercaptoethanol; for M.SssI, 500 mM Tris Cl, pH 8.0, 500 mM NaCl, 100 mM EDTA), 8 μl S-adenosylmethionine (32 mM in 5 mM H2 SO4, 10% ethanol) and 4 μl methylase (M.AluI, 5 units/μl; M.HaeIII, 5 units/μl; M.HhaI, 25 units/μl; M.HpaII, 1-5 units/μl,M.MspI, 5 units/μl, M.SssI, 2 units/μl) in a total volume of 82 μl. Methylation reactions were incubated 90 minutes at 37° C., then heat-killed by incubation for 15 minutes at 67°-70° C. These substrates were then distributed to 6 series of 7 tubes for McrBC titration. […]

For “McrBC: DNA endonuclease obtainable from Escherichia coli; components McrBL and McrC, substantially free of McrBS”, which “size of fragments produced by cleavage” value [1] is on record?
Its value is “smaller than 700 bp”.

And the “pH to which the reaction can be lowered with activity detectable” value [2]?
The value was “about 5.8”.

And the “size of fragments produced by cleavage” value ([3]; CAGm4CTG-modified DNA, in the presence of GTP, in situ digestion)?
Its value is “smaller than 50 kb”.

And the “degradation of substrate DNA” value ([3]; agarose-embedded cellular DNA of Escherichia coli carrying ppvuIIM1.9, M.PvuII modified (GAm4CGTC))?
The value was “degrades”.

And the “degradation of substrate DNA” value (methylated DNA; Dcm-modified (CmCWGG) pBR322, pUC19 or bacteriophage lambda DNA)?
The value was “does not degrade”.

And the “cleavage of substrate DNA” value (methylated DNA; M.AluI-methylated pUC19 linearized at the AflIII site)?
The value was “cleave”.

And the “cleavage of substrate DNA” value (methylated DNA; M.HaeIII-methylated (GGmCC) pUC19 linearized at the AflIII site)?
The value was “cleaves”.

And the “cleavage of substrate DNA” value (methylated DNA; M.HhaI-methylated (GmCGC) pBR322)?
The value was “cleaves”.

And the “cleavage of substrate DNA” value (methylated DNA; M.HhaI-methylated pUC19 linearized at the AflIII site)?
The value was “cleaves”.

What about the “degradation of substrate DNA” value (methylated DNA; M.HpaII-modified (Cm5CGG) pBR322, pUC19 or bacteriophage lambda DNA) of the same substance?
Its value is “does not degrade”.

And the “cleavage of substrate DNA” value (methylated DNA; M.MspI-modified (mCCGG) pUC19 linearized at the AflIII site)?
The value was “cleaves”.

And the “degradation of substrate DNA” value (methylated DNA; M.SssI modified (mCG) pBR322 and pUC19)?
Its value is “degrades”.

And the “degradation of substrate DNA” value (methylated DNA; pBR322, pUC19 or bacteriophage lambda modified by both Dcm and M.HpaII)?
The value was “does not degrade”.

And the “cleavage of substrate DNA” value (methylated DNA; pBR322 DNA methylated by M.AluI (AGm5CT))?
The value was “cleave”.
